In US20090005338A1, “Carbonyl-substituted titanocenes” (Charite - Universitatsmedizin Berlin, priority 2006, published 2009):

Experiments:
lymphoma cells (BLAB) = conditions: various concentrations, 72 h
Procedure: Lymphoma cells (BLAB) were treated with the carbonyl-substituted titanocene (2), the conventional nucleoside analogue cytarabin (AraC), which is used in the therapy of malignant diseases, and with the combination of (2) and AraC in various concentrations for 72 h. The apoptosis induction was examined by flow cytometry by measuring the DNA fragmentation after staining the cells with propidium iodide. The measured values of three independent examinations are shown, wherein the error bars show the standard deviations from the mean.

[1] = SCID mice, oral therapy 50 mg/kg body weight
BLAB cells = conditions: 3 h incubation, highest concentration
Procedure: A non-specific cytotoxic effect of the titanocenes via necrosis could be excluded by measuring the extracellular lactate dehydrogenase (LDH) release by ELISA reader detection after incubation for 3 h.

[2] = test system: BJAB cells (Burkitt lymphoma cell line); assay: Apoptosis induction detected as DNA fragmentation by flow cytometry (FACS) after propidium iodide staining; assay type: cell-based; conditions: 72 h
Procedure: Within the scope of apoptotic cell death, the cell is dismantled proteolytically by caspases from inside. Thereupon, the DNA is also fragmented, inter alia. This DNA fragmentation, which is specific for apoptosis, is considered a proof of apoptosis induction and is detected by means of flow cytometry on the single cell level.
BJAB cells (Burkitt lymphoma cell line) in different concentrations were treated with a titanocene derivative and incubated at 37° C. and 5% CO2 for 72 hours. A control (untreated cell suspension) and a solvent control with dimethyl sulfoxide (DMSO) were continuously included. After incubation for 72 hours, apoptosis induction was detected by flow cytometry (FACS) through DNA fragmentation with propidium iodide (Eβmann, 2000).
FIG. 1: BLAB mock cells (1×10^5/ml) were treated with increasing concentrations of the titanocene derivative 4-[1-(dichlorotitanocenyl)]-4-methylbutyric acid n-octylamide (2) and incubated at 37° C. and 5% CO2 for 72 h. After propidium iodide staining, the DNA fragments were detected by flow cytometry (FACS analysis). Ko (untreated cell suspension) and DMSO (solvent control) were included with equivalent treatment.
Since the activity of the cytostatic agents develops in the malignant cells through a specific apoptosis induction, it is reasonable to measure this effect and thus the selectivity of our compounds rather than stating, as usual, the non-specific cytotoxicity described by the LC50 values. Therefore, for examining the structure-effect relationship of our titanocenes, we have established the concentration (AC50) at which a specific apoptosis is induced in […] of the lymphoma cells.
For determining this value, lymphoma cells (10^5/ml BJAB cells) were incubated in different concentrations with (21) at 5% CO2 and 37° C. for 72 h. After staining with propidium iodide, the DNA fragmentation was detected by flow cytometry by means of a FACS analysis.

[3] = test system: primary lymphoblasts from an ALL patient; assay: Apoptosis induction in primary lymphoblasts ex vivo (DNA fragmentation, propidium iodide, FACS); assay type: cell-based, human; conditions: 60 h, concentration in the range of LD50 in the BLAB cell line; for apoptosis induction in primary lymphoblasts (in words): therapy-resistant leukemia cells
Procedure: The concentrations employed were selected to always be within the respective range of LD50 when the BLAB cell line was used. Thereafter, the cells were incubated at 37° C. and 5% CO2 for 60 hours, followed by staining with propidium iodide and quantifying by flow cytometry in FACS (Prokop et al., 2003).
The incubation was effected at 37° C. and 5% CO2 for 60 h. Apoptosis induction was measured as DNA fragmentation by flow cytometry after propidium iodide staining.

human lymphoma cells = conditions: SCID mice, microcrystalline suspension p.o., 5×50 mg/kg body weight per week over 2 weeks from day 14; Mann-Whitney U test p<0.05
Procedure: The mean values of the tumor volumes (*=significance) with standard deviations as a function of therapy duration (application of (2) from day 14 with 5×50 mg/kg body weight per week p.o. over 2 weeks) are shown.

BJAB cells [4] = conditions: 48 h, concentration-dependent
Procedure: After treatment of the cells with different concentrations of a titanocene including a zero control and a solvent control (DMSO), the cells are incubated at 37° C. and 5% CO2 for 48 hours.
The incubation was effected at 37° C. and 5% CO2 for 48 h including zero and solvent controls, followed by staining the cells with the mitochondria-specific stain JC-1 and detection of the color change and thus the change of the mitochondrial membrane potential by flow cytometry.

BJAB cells [5] = conditions: 75 μM, 72 h

Molecule: 4-[1-(dichlorotitanocenyl)]-4-methylbutyric acid n-octylamide [Complex (2)]
- effect of the combination with AraC on apoptosis induction (lymphoma cells (BLAB)): significant synergistic effect
- tolerability [1]: good tolerability
- viability of the cell population (LDH release) (BLAB cells): above 94%
- apoptosis induced, proportion of BJAB cells ([2]; 100 μM): about 840%
- AC50 ([2]; BJAB cell line, 37° C., 5% CO2, read-out: AC50 (concentration at which a specific apoptosis is induced in 500% of the lymphoma cells)): 55 µM
- concentration-dependent apoptosis induction (proportion of apoptotic cells in the total population) ([2]; BJAB, highest effect over the concentrations tested): up to 80%
- apoptosis induction, proportion of leukemia cells ex vivo [3]: about 60%
- growth of human lymphoma cells (tumor volume) (human lymphoma cells): significantly inhibited
- proportion of cells with changed mitochondrial membrane potential (ΔΨm) (BJAB cells [4]): more than 70%
- cell morphology (BJAB cells [5]): significant swelling and “blebbing” that is characteristic of apoptosis

Molecule: COc1cccc2c1C(=O)c1c(O)c3c(c(O)c1C2=O)C[C@@](O)(C(=O)CO)C[C@@H]3O[C@H]1C[C@H](N)[C@@H](O)[C@H](C)O1 [epirubicin]
- apoptosis induction in primary lymphoblasts (in words) [3]: did not induce any significant apoptosis

Molecule: Nc1ccn([C@@H]2O[C@H](CO)[C@@H](O)[C@@H]2O)c(=O)n1 [cytarabin]
- apoptosis induction in primary lymphoblasts (in words) [3]: did not induce any significant apoptosis

Molecule: CC(=O)[C@]1(O)Cc2c(O)c3c(c(O)c2[C@@H](O[C@H]2C[C@H](N)[C@H](O)[C@H](C)O2)C1)C(=O)c1ccccc1C3=O [idarubicin]
- apoptosis induction in primary lymphoblasts (in words) [3]: did not induce any significant apoptosis

Molecule: COc1cccc2c1C(=O)c1c(O)c3c(c(O)c1C2=O)C[C@@](O)(C(C)=O)C[C@@H]3O[C@H]1C[C@H](N)[C@H](O)[C@H](C)O1 [daunorubicin]
- apoptosis induction in primary lymphoblasts (in words) [3]: did not induce any significant apoptosis

Molecule: COc1cccc2c1C(=O)c1c(O)c3c(c(O)c1C2=O)C[C@@](O)(C(=O)CO)C[C@@H]3O[C@H]1C[C@H](N)[C@H](O)[C@H](C)O1 [doxorubicin]
- apoptosis induction in primary lymphoblasts (in words) [3]: did not induce any significant apoptosis

Molecule: CC[C@]1(O)C[C@H]2CN(CCc3c([nH]c4ccccc34)[C@@](C(=O)OC)(c3cc4c(cc3OC)N(C=O)[C@H]3[C@@](O)(C(=O)OC)[C@H](OC(C)=O)[C@]5(CC)C=CCN6CC[C@]43[C@@H]65)C2)C1 [vincristin]
- apoptosis induction in primary lymphoblasts (in words) [3]: did not induce any significant apoptosis
